The assay deals with Protein-arginine deiminase type-4 (Homo sapiens, UniProt Q9UM07). Put plainly: In Vitro PAD4 BAEE Biochemical Assay. As to the method: One hundred nanoliters of test compounds dissolved in DMSO at various concentrations were dispensed into a 384-well black OptiPlate using a Labcyte Echo instrument. Ten microliters of a solution of recombinant PAD4 and calcium chloride diluted in PAD4 assay buffer (50 mM MOPS [3-(N-morpholino) propanesulfonic acid], pH 7.6; 50 mM sodium chloride; 0.05% Tween-20; 2 mM dithiothreitol) was added to the compound-containing plate and was incubated for 30 minutes at 25° C. Ten microliters of a solution of BAEE (Sigma-Aldrich #B4500) diluted in PAD4 assay buffer was then added to start the reaction. Final concentrations were 5 nM PAD4, 2 mM calcium chloride, and 3 mM BAEE. The reaction mixture was incubated at 25° C. for 2 hours and was stopped with the addition of 10 microliters of a solution of 75 mM EDTA (Ethylenediaminetetraacetic acid) in PAD4 assay buffer. Thirty microliters of detection solution (5 mM o-phthalaldehyde, 50 mM MOPS [3-(N-morpholino) propanesulfonic acid], pH 7.6; 50 mM sodium chloride; 0.05% Tween-20; 5 mM dithiothreitol) was then added and the reaction was incubated for 1 hour at 25° C.
Protein-arginine deiminase type-4, sequence (Q9UM07 whole entry): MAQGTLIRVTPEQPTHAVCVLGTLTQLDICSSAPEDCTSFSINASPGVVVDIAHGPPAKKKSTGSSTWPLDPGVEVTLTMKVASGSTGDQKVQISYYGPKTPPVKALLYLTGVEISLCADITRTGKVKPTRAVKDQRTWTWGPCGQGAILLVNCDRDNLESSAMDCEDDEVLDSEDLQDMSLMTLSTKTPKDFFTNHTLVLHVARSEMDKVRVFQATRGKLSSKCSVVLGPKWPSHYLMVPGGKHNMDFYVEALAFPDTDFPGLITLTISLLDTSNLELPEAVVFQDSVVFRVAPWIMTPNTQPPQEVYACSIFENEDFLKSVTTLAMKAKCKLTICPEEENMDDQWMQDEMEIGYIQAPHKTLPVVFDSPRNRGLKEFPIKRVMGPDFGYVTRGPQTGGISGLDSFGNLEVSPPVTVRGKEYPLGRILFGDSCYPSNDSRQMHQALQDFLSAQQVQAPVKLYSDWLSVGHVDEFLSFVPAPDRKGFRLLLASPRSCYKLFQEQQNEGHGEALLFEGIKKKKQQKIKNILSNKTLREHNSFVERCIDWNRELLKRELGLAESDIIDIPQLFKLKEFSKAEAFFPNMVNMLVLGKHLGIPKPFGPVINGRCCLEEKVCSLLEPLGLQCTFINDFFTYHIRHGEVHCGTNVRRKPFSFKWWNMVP
As to `COc1cc(C(=O)N2C[C@H](N)CC[C@@H]2C)cc2nc(-c3cc4ccc(-c5cccnc5-c5cccnc5Cl)nc4n3CC3CC3)n(C)c12` [US11878965, Example 258], 245 nM corresponded to half-maximal inhibition (IC50). This lies in the sub-micromolar range.

In the case of `COc1cc(C(=O)N2[C@H]3CC[C@@H]2[C@H](N)C3)cc2nc(-c3cc4ccc([C@@H](C)NC(=O)C56CC(F)(C5)C6)c(F)c4n3CC3CC3)n(C)c12` [US11878965, Example 144], the IC50 (usually the concentration that inhibits the measured activity by half) worked out at 229 nM.

For the compound `COc1cc(C(=O)N2[C@H]3CC[C@@H]2[C@H](N)C3)cc2nc(-c3cc4ccc([C@@H](C)NC(=O)N5CC(F)(F)C5)nc4n3CC3CC3)n(C)c12` [US11878965, Example 238], half-maximal inhibition (IC50) required 28.7 nM.

In turn, `COc1cc(C(=O)N2C[C@H](N)[C@@H]3CC[C@H]2C3)cc2nc(-c3cc4ccc([C@@H](C)NC(=O)c5cccnc5Cl)nc4n3CC3CC3)n(C)c12` [US11878965, Example 302] had an IC50 of 68.4 nM.

In the case of `COc1cc(C(=O)N2C[C@H](N)CC[C@@H]2C)cc2nc(-c3cc4ccc(N5C(=O)CC[C@H]5C)nc4n3CC3CC3)n(C)c12` [US11878965, Example 284], the IC50 was 1240 nM.

The values above are taken from BindingDB's records for patent US11878965 (Gilead Sciences, 2024).
